Data published in patent publication US5744424A.
In brackets after ≈: the same amount, converted by molar mass.

Columns and labels:
[1] = water; 18° C.; cited from earlier work
plant species = details: cited from earlier work
turf grasses = assay: Force required to extract grass sod plugs (root density, FIG. 4)
physchem [2] = details: water koh 0.0025 n
Description: The solubility data enable address a second underlying problem encountered when the aqueous hydroxide solution is employed.

physchem [3] = assay: physchem
Description: where Percent "S" is the per unit volume of N^6 BA expressed as a percentage and "N" is the Normality of the solution after dissolution of N^6 BA in the solution.

[4] = cited from earlier work
[5] = cited from earlier work; remark: listed apart in the source

[Ca+2].[OH-].[OH-] [Calcium hydroxide]
normality of saturated solution [1]: 9.6

[K+].[OH-] [KOH, potassium hydroxide]
normality of saturated solution [1]: 18.0

c1ccc(CNc2ncnc3nc[nH]c23)cc1 [N^6 BA]
responses elicited in plants (plant species; general): promotion of cell division, inhibition of respiration, increasing retention of water and drought resistance, enhancing root and top growth with change in root/top ratios as well as shortening plant internodes | chlorophyll retention (plant species; pre and post harvest commodities): increase chlorophyll retention | efficacy of N^6 BA in presence of iron (turf grasses; large amount of ferrous iron ions): a decrease in the efficacy of N^6 BA | solubility (physchem [2]): 0.062 mg/mL (≈ 0.275 mM) | solubility (physchem [3]; aqueous koh 2.875 n): ~455 mg/mL (≈ 2020 mM) | solubility (physchem [3]; koh in 95% ethanol, organic solvent or mixture): ~540 mg/mL (≈ 2400 mM) | dissolved concentration in mineral acids ([4]; mineral acids): approximately 5% | solubility in water ([4]; water): about 0.00044 grams per 100 milliliters

[Na+].[OH-] [NaOH, sodium hydroxide]
normality of saturated solution [1]: 21.0

O.O.O.O.O.O.O.O=S(=O)([O-])[O-].[Fe+2] [iron, Ferrous sulphate heptahydrate]
practical concentration of iron in liquid spray concentrates [5]: 5-6% | root development (turf grasses; iron to N^6 BA molecular ratio of about 200:1 or greater): substantially decreases root development

[Mg+2].[OH-].[OH-] [magnesium hydroxide]
normality of saturated solution [1]: 8.2

[OH-].[OH-].[Zn+2] [zinc hydroxide]
normality of saturated solution [1]: 9.4
